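Following 48 hours of exposure in 96-well plates, responses at five concentrations were used to interpolate endpoints linearly. GI50 = concentration required for 50% inhibition of growth.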 The source made the active and inactive calls. Cut-off read from the data, not from the text of the source: active = GI50 up to about 1.1 µM and inactive = higher.
Legend:
Assay in all cases: NCI tumour cell line growth inhibition, 48 h
IGROV-1 = system: IGROV-1
Hs-578T = system: Hs-578T
SK-MEL-5 = system: SK-MEL-5
OVCAR-3 = system: OVCAR-3
SN12C = system: SN12C
MOLT-4 = system: MOLT-4
NCI-H226 = system: NCI-H226
HCC 2998 = system: HCC 2998
NCI-H522 = system: NCI-H522
HCT-116 = system: HCT-116
MDA-MB-231 = system: MDA-MB-231
EKVX = system: EKVX
HOP-62 = system: HOP-62
PC-3 = system: PC-3
HL-60 = system: HL-60
A549 = system: A549
M14 = system: M14
T47D = system: T47D
RPMI-8226 = system: RPMI-8226

SMILES	GI50 (IGROV-1)	GI50 (Hs-578T)	GI50 (SK-MEL-5)	GI50 (OVCAR-3)	GI50 (SN12C)	GI50 (MOLT-4)	GI50 (NCI-H226)	GI50 (HCC 2998)	GI50 (NCI-H522)	GI50 (HCT-116)	GI50 (MDA-MB-231)	GI50 (EKVX)	GI50 (HOP-62)	GI50 (PC-3)	GI50 (HL-60)	GI50 (A549)	GI50 (M14)	GI50 (T47D)	GI50 (RPMI-8226)
O=C1NC2CCCCC2NC1=C(C(=O)c1ccccc1)C(=O)c1ccccc1 (centres undefined)	26.3 µM (inactive)	62.8 µM (inactive)	27.5 µM (inactive)	67.5 µM (inactive)	20.7 µM (inactive)	20.5 µM (inactive)	12.5 µM (inactive)	70.8 µM (inactive)	18.9 µM (inactive)	40.7 µM (inactive)	24.3 µM (inactive)	70.6 µM (inactive)	52.6 µM (inactive)	53 µM (inactive)	46.7 µM (inactive)	34 µM (inactive)	66.4 µM (inactive)	> 100 µM (inactive)	28.8 µM (inactive)
COc1c(C)c2nc3ccccc3nc2c2c(O)ccnc12	43.3 µM (inactive)	16 µM (inactive)	35.6 µM (inactive)	> 100 µM (inactive)	> 100 µM (inactive)	> 100 µM (inactive)	> 100 µM (inactive)	> 100 µM (inactive)	71.3 µM (inactive)	> 100 µM (inactive)	> 100 µM (inactive)	> 100 µM (inactive)	23.5 µM (inactive)	> 100 µM (inactive)	> 100 µM (inactive)	37.1 µM (inactive)	> 100 µM (inactive)	6.64 µM (inactive)	> 100 µM (inactive)
CCOC(=O)/C=C(/C(=O)OCC)n1ccc(=O)[nH]c1=O	15.2 µM (inactive)	17.9 µM (inactive)	15.3 µM (inactive)	3.59 µM (inactive)	7.78 µM (inactive)	2.25 µM (inactive)	6 µM (inactive)	16.5 µM (inactive)	0.726 µM (active)	2.48 µM (inactive)	10.8 µM (inactive)	4.86 µM (inactive)	19.6 µM (inactive)	13.8 µM (inactive)	1.78 µM (inactive)	18 µM (inactive)	3.83 µM (inactive)	3.4 µM (inactive)	2.67 µM (inactive)
OC(c1ccoc1)c1cc2ccccc2s1 (centres undefined)	> 10 µM (inactive)	> 10 µM (inactive)	> 10 µM (inactive)	> 10 µM (inactive)	> 10 µM (inactive)	> 10 µM (inactive)	> 10 µM (inactive)	> 10 µM (inactive)	> 10 µM (inactive)	> 10 µM (inactive)	> 10 µM (inactive)	> 10 µM (inactive)	> 10 µM (inactive)	> 10 µM (inactive)	> 10 µM (inactive)	> 10 µM (inactive)	> 10 µM (inactive)	> 10 µM (inactive)	> 10 µM (inactive)
O=C1C=C(Cl)C(=O)C(c2ccc(Cl)cc2)=C1	15 µM (inactive)	26.5 µM (inactive)	16.5 µM (inactive)	16.6 µM (inactive)	22.7 µM (inactive)	4.03 µM (inactive)	20.2 µM (inactive)	18.1 µM (inactive)	5.05 µM (inactive)	19.3 µM (inactive)	17.1 µM (inactive)	14.8 µM (inactive)	21.1 µM (inactive)	15.3 µM (inactive)	18.8 µM (inactive)	46.6 µM (inactive)	17 µM (inactive)	13.7 µM (inactive)	12.1 µM (inactive)
CN(C)c1nc(N)nc(CS)n1	> 100 µM (inactive)	> 100 µM (inactive)	> 100 µM (inactive)	> 100 µM (inactive)	> 100 µM (inactive)	50 µM (inactive)	> 100 µM (inactive)	> 100 µM (inactive)	> 100 µM (inactive)	> 100 µM (inactive)	45.6 µM (inactive)	> 100 µM (inactive)	56.1 µM (inactive)	54.3 µM (inactive)	23.3 µM (inactive)	51.3 µM (inactive)	> 100 µM (inactive)	> 100 µM (inactive)	96.2 µM (inactive)
COc1ccc(C(CC(=O)c2ccc3c(c2)OCO3)c2c(O)oc3ccccc3c2=O)cc1OC (centres undefined)	> 100 µM (inactive)	45.8 µM (inactive)	47 µM (inactive)	82.8 µM (inactive)	> 100 µM (inactive)	> 100 µM (inactive)	> 100 µM (inactive)	> 100 µM (inactive)	> 100 µM (inactive)	75.3 µM (inactive)	> 100 µM (inactive)	> 100 µM (inactive)	> 100 µM (inactive)	88.5 µM (inactive)	> 100 µM (inactive)	51.1 µM (inactive)	1 µM (active)	> 100 µM (inactive)	45.1 µM (inactive)
CCN(CC)CCc1c2c(nc3ccccc13)C(=O)c1cccnc1C2=O	1.74 µM (inactive)	4.99 µM (inactive)	0.209 µM (active)	0.055 µM (active)	1.1 µM (active)	3.24 µM (inactive)	4.68 µM (inactive)	2.54 µM (inactive)	0.731 µM (active)	0.325 µM (active)	1.83 µM (inactive)	2.89 µM (inactive)	2.44 µM (inactive)	2.82 µM (inactive)	0.251 µM (active)	2.88 µM (inactive)	0.454 µM (active)	1.96 µM (inactive)	1.88 µM (inactive)
Cc1ccc(NCC2CC/C(=C\c3ccc(Cl)cc3)C2=O)cc1 (centres undefined)	16.6 µM (inactive)	29 µM (inactive)	14.5 µM (inactive)	14.3 µM (inactive)	13.1 µM (inactive)	3.84 µM (inactive)	> 76.6 µM (inactive)	30.6 µM (inactive)	7.38 µM (inactive)	11.6 µM (inactive)	11.4 µM (inactive)	52.7 µM (inactive)	50 µM (inactive)	14.9 µM (inactive)	2.16 µM (inactive)	49.4 µM (inactive)	13.4 µM (inactive)	15.1 µM (inactive)	0.635 µM (active)
CC(NNC(=O)c1cc[n+]([BH2-]C#N)cc1)c1ccccc1 (centres undefined)	> 100 µM (inactive)	> 100 µM (inactive)	> 100 µM (inactive)	> 100 µM (inactive)	> 100 µM (inactive)	> 100 µM (inactive)	> 100 µM (inactive)	> 100 µM (inactive)	> 100 µM (inactive)	> 100 µM (inactive)	> 100 µM (inactive)	> 100 µM (inactive)	> 100 µM (inactive)	> 100 µM (inactive)	> 100 µM (inactive)	> 100 µM (inactive)	> 100 µM (inactive)	> 100 µM (inactive)	> 100 µM (inactive)
COc1cc(OC)c2c(c1)OC(c1ccccc1)CC2=O (centres undefined) [DIMETHYLPINOCEMBRIN]	> 10 µM (inactive)	> 10 µM (inactive)	> 10 µM (inactive)	> 10 µM (inactive)	> 10 µM (inactive)	> 10 µM (inactive)	> 10 µM (inactive)	> 10 µM (inactive)	> 10 µM (inactive)	> 10 µM (inactive)	> 10 µM (inactive)	> 10 µM (inactive)	> 10 µM (inactive)	> 10 µM (inactive)	> 10 µM (inactive)	> 10 µM (inactive)	> 10 µM (inactive)	> 10 µM (inactive)	> 10 µM (inactive)

Reference: ChEMBL document CHEMBL1201862, “PubChem BioAssay data set” (2004)
